18 compounds from ChEMBL document CHEMBL1139034, “Synthesis and antihyperglycemic evaluation of various protoberberine derivatives” (2006) can be followed below.

As a reminder, the MIC is the lowest concentration that inhibits growth of the organism. Low values mean a more susceptible organism, high ones a less susceptible organism.

Calls of active or inactive are those of the source. No cut-off for these calls is given here.

A short description of experiment [1]: Reduction of blood glucose level in alloxan induced diabetic mice at 200 mg/kg. Type of experiment: functional, organism-based. Further details: dose 200 mg/kg. To be noted: Mus musculus, target entry is the homologue from another species.
Experiment [2] has as its target Sulfonylurea receptor 1, Kir6.2 (Homo sapiens) (UniProt Q14654+Q09428). The experiment in a line: Binding affinity to sulfonylurea receptor in pancreatic islet beta cell membranes.
Experiment [3] deals with Escherichia coli. The experiment is described as follows: Antibacterial activity against Escherichia coli upto 50 ug/mL. It counts as functional, organism-based.
Experiment [4] deals with Escherichia coli. The experiment is described as follows: Antibacterial activity against Escherichia coli. It counts as functional.

Regarding `COc1ccc2c(c1)C(=O)N(CCc1ccc(S(=O)(=O)NC(=O)NC3CCCCC3)cc1)C(=O)C2(C)C`, in experiment [1], the Activity is 162 mg/dL. Besides, the outcome in experiment [2] was Active.

Turning to `c1ccc(C[N+]23CCc4cc5c(cc4C2Cc2ccccc2C3)OCO5)cc1` (stereo unspecified), the result in experiment [3] was inactive. The result in experiment [2] was Active.

Take `COc1ccc2cc3[n+](cc2c1)CCc1cc2c(cc1-3)OCO2`: the outcome in experiment [3] and in experiment [2] was inactive.

Take `CC[N+]12CCc3cc4c(cc3C1Cc1ccc(OC)c(OC)c1C2)OCO4` (stereo unspecified): the outcome in experiment [3] and in experiment [2] was inactive.

In the case of `COc1ccc2c(c1OC)C[N+]1(Cc3ccccc3)CCc3cc4c(cc3C1C2)OCO4` (stereo unspecified), the Activity in experiment [1] stood at 146 mg/dL. Besides, in experiment [3], the outcome was inactive. The result in experiment [2] was Active.

Turning to `COc1ccc2cc3[n+](cc2c1OC)CCc1cc(OC(C)=O)c(OC(C)=O)cc1-3`, the outcome in experiment [3] and in experiment [2] was inactive.

For `COc1ccc2c[n+]3c(cc2c1)-c1cc2c(cc1CC3)OCO2`, the result in experiment [3] and in experiment [2] was inactive.

The compound `COc1ccc2cc3[n+](cc2c1O)CCc1cc2c(cc1-3)OCO2` registered an Activity in experiment [1] of 12 mg/dL. For the same compound, the outcome in experiment [3] was inactive. In experiment [2], the result was Active.

On to `COc1ccc2c(c1OC)CN1CCc3cc4c(cc3[C@@H]1C2)OCO4`, for which the result in experiment [3] and in experiment [2] was inactive.

As for `COc1ccc2cc3[n+](cc2c1OC)CCc1cc(O)c(O)cc1-3`, the result in experiment [3] and in experiment [2] was inactive.

With `COc1cccc2cc3[n+](cc12)CCc1cc2c(cc1-3)OCO2`, the outcome in experiment [3] and in experiment [2] was inactive.

The compound `c1ccc2c[n+]3c(cc2c1)-c1cc2c(cc1CC3)OCO2` had an Activity in experiment [1] of 67 mg/dL. Further, the result in experiment [3] was inactive. For the same compound, the result in experiment [2] was Active.

As to `COc1ccc2c(c1OC)C[N+]1(C)CCc3cc4c(cc3C1C2)OCO4` (stereo unspecified), the result in experiment [3] and in experiment [2] was inactive.

In the case of `c1ccc(COc2ccc3c[n+]4c(cc3c2)-c2cc3c(cc2CC4)OCO3)cc1`, the result in experiment [3] and in experiment [2] was inactive.

For the compound `COc1ccc2cc3[n+](cc2c1OC)CCc1cc2c(cc1-3)OCO2.[Cl-]` [BERBERINE CHLORIDE], the Activity in experiment [1] worked out at 61 mg/dL. Further, in experiment [4], the lowest concentration to inhibit growth (MIC) was 5 µg/mL. Further, the result in experiment [2] was Active.

With `c1ccc2c(c1)CC1c3cc4c(cc3CCN1C2)OCO4` (stereo unspecified), the outcome in experiment [3] and in experiment [2] was inactive.

The compound `COc1ccc2c(c1OC)C[N+]1([O-])CCc3cc4c(cc3C1C2)OCO4` (stereo unspecified) showed an Activity in experiment [1] of 23 mg/dL. Further, the result in experiment [3] was inactive. In experiment [2], the outcome was Active.

Regarding `COc1cc2c(cc1OC)-c1cc3ccc(OC)c(OC)c3c[n+]1CC2`, the result in experiment [3] and in experiment [2] was inactive.
